Data on twelve molecules can be found in US12516056B2, “Compounds for inhibition of janus kinase 1” (MANKIND PHARMA LTD., priority 2019, dated 2026).

Experiment [1] concerns STAT5 phosphorylation by GMCSF in TF-1 cells. The experiment is described as follows: JAK cellular assay: STAT5 phosphorylation by GMCSF in TF-1 cells (HTRF). The class given is cell-based. The settings on record: Homo sapiens; TF-1 cells, GMCSF 5 ng/ml, pSTAT5 HTRF; read-out: Cell Based Assay (μM) TF-1/GMCSF/pSTAT5. A digest of the protocol:
(§1)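 Phospho-STAT3 (IL-6, 30 ng/ml) and phospho-STAT5 (GMCSF, 5 ng/ml) read by HTRF in lysates after 20 min cytokine exposure, minus unstimulated-cell background. Cells were serum-starved overnight, plated at 120,000/well, given compound 30 min at 37 °C beforehand; DMSO 0.2% final.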
(TR-FRET usually uses a lanthanide donor and a delayed reading to cut background.)

The next experiment concerns the target T1, Recombinant JAK3 (Homo sapiens, UniProt P52333).
T1 construct: purchased Carna Biosciences
T1 sequence (P52333 1-1124): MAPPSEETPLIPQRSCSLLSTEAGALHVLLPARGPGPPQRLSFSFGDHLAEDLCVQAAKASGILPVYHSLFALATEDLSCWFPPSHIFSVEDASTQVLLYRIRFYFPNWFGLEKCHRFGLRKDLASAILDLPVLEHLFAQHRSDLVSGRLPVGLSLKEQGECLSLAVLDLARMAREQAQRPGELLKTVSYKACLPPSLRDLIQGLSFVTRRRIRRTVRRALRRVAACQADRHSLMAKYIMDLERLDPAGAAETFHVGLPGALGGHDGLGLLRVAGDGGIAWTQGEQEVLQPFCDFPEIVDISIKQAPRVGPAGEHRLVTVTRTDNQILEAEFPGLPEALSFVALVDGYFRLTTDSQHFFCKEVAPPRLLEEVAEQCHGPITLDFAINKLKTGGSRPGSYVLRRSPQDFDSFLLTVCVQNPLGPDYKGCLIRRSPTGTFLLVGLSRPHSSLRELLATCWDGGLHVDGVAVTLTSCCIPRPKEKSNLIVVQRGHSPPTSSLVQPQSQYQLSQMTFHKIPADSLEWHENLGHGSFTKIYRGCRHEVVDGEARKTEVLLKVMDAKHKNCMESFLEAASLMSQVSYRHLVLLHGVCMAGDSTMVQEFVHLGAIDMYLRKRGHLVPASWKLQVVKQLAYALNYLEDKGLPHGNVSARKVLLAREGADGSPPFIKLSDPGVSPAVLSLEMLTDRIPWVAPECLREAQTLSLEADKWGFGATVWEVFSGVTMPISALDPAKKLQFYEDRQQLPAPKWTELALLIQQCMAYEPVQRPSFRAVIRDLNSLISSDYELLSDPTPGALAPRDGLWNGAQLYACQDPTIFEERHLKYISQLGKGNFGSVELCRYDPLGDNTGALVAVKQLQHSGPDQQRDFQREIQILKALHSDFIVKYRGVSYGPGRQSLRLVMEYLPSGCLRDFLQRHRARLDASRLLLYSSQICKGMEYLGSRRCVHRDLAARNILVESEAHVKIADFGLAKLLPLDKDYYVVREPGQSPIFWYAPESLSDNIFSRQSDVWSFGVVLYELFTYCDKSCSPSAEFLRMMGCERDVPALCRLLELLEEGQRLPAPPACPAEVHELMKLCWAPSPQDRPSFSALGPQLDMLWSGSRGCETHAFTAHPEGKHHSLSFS
The experiment is described as follows: JAK biochemical assay (LANCE Ultra TR-FRET), JAK3. The note with it: recombinant JAK3, TR-FRET; read-out: Biochemical Assay (μM) JAK3. The method in brief:
(§2)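 TR-FRET read-out of ULight substrate phosphorylation by recombinant kinase gives % inhibition relative to vehicle. The assay buffer is HEPES pH 7.5 with EGTA, MgCl2, DTT and Tween-20.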

The subject of experiment [2] is STAT5 phosphorylation by IL-2 in HT-2 cells. The experiment is described as follows: STAT5 phosphorylation by IL-2 in HT-2 cells (HTRF). The class given is cell-based. The note with it: IL-2 50 U/ml, pSTAT5 HTRF, read-out: Cell Based Assay (μM) HT-2/IL-2/pSTAT5. A digest of the protocol:
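Readout is HTRF detection of phospho-STAT5 in lysates, corrected for signal from unstimulated cells. Before lysis, HT-2 cells starved in 10% FBS medium received compound for 30 min (0.2% DMSO final, 37 °C), followed by 50 U/ml recombinant human IL-2 for 20 min.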

In experiment [3] the test system is STAT3 phosphorylation by IL-6 in TF-1 cells. The experiment is described as follows: JAK cellular assay: STAT3 phosphorylation by IL-6 in TF-1 cells (HTRF). The class given is cell-based. The settings on record: IL-6 30 ng/ml, pSTAT3 HTRF, read-out: Cell Based Assay (μM) TF-1/IL-6/pSTAT3. The method in brief:
as §1

The target of the next experiment is T2, Recombinant JAK2 (Homo sapiens, UniProt O60674).
T2 construct: purchased Carna Biosciences
The experiment is described as follows: JAK biochemical assay (LANCE Ultra TR-FRET), JAK2. The settings on record: recombinant JAK2, TR-FRET; read-out: Biochemical Assay (μM) JAK2. The method in brief: as §2

The next experiment concerns the target T3, Recombinant JAK1 (Homo sapiens, UniProt P23458).
T3 construct: purchased Carna Biosciences
The experiment is described as follows: JAK biochemical assay (LANCE Ultra TR-FRET), JAK1. The settings on record: recombinant JAK1, TR-FRET; read-out: Biochemical Assay (μM) JAK1. The method in brief:
as §2

The target in the next experiment is T4, Recombinant TYK2 (Homo sapiens, UniProt P29597).
T4 construct: purchased Carna Biosciences
The experiment is described as follows: JAK biochemical assay (LANCE Ultra TR-FRET), TYK2. The settings on record: recombinant TYK2, TR-FRET; read-out: Biochemical Assay (μM) TYK2. A digest of the protocol:
as §2

Read-outs that look alike come from different tables or passages of the source. Where only a bound is given, the exact number is not on record here.

T4 sequence (P29597 whole entry): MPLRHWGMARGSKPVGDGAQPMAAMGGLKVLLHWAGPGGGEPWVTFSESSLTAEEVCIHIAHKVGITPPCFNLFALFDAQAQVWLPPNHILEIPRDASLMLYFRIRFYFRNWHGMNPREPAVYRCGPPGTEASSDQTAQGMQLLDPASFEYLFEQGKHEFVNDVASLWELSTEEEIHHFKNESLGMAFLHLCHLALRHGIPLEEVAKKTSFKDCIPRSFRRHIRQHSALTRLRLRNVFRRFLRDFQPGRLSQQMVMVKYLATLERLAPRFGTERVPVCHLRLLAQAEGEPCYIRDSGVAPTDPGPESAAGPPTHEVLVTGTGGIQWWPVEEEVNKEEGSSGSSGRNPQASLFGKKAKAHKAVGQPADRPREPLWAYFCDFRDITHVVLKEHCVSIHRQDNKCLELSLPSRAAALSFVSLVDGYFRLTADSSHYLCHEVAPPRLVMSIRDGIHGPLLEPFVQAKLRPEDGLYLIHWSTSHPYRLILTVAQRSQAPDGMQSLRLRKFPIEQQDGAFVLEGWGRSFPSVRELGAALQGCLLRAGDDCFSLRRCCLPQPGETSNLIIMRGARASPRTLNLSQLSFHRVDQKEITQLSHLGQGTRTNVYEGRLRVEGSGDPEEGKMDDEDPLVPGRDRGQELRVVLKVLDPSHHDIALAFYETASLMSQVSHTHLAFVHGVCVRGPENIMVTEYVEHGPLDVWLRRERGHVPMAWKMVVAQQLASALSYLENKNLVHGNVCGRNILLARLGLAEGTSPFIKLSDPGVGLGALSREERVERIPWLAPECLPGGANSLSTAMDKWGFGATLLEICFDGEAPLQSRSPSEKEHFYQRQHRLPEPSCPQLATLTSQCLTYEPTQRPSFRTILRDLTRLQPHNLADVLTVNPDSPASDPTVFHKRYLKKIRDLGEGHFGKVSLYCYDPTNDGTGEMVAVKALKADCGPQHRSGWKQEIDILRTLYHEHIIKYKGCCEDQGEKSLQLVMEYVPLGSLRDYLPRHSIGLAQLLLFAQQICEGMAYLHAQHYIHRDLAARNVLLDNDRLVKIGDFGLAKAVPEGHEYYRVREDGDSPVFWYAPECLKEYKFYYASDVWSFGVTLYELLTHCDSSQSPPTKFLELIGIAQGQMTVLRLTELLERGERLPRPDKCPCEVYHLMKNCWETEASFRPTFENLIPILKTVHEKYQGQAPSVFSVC
T3 sequence (P23458 whole entry): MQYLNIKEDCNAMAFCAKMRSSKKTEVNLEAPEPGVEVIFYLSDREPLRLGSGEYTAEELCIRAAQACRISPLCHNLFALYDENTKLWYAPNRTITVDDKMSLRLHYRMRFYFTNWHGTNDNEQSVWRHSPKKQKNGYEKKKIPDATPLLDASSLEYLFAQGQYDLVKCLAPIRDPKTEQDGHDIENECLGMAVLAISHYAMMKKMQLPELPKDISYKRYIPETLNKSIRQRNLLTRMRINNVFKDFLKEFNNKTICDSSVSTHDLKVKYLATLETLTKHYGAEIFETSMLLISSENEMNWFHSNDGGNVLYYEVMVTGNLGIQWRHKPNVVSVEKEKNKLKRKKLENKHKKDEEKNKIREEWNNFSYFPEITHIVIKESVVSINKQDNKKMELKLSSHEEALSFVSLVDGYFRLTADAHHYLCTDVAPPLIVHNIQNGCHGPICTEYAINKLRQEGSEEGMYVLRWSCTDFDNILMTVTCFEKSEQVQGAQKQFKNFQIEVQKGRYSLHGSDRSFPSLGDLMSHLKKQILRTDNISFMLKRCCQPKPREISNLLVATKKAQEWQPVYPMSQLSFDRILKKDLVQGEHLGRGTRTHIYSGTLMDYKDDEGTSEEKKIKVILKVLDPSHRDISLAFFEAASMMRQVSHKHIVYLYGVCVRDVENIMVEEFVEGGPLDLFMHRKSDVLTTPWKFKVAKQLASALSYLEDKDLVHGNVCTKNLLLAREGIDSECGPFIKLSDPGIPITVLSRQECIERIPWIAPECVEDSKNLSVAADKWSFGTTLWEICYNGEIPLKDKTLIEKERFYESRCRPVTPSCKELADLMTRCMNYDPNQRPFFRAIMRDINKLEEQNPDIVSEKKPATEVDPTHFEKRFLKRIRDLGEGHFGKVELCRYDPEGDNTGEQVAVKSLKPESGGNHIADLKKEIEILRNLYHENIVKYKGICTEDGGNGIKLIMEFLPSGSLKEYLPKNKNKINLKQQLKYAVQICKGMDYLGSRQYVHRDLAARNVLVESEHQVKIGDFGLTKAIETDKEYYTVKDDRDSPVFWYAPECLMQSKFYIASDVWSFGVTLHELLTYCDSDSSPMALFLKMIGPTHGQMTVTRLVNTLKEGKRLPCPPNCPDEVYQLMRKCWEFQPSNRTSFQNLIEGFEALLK
T2 sequence (O60674 whole entry): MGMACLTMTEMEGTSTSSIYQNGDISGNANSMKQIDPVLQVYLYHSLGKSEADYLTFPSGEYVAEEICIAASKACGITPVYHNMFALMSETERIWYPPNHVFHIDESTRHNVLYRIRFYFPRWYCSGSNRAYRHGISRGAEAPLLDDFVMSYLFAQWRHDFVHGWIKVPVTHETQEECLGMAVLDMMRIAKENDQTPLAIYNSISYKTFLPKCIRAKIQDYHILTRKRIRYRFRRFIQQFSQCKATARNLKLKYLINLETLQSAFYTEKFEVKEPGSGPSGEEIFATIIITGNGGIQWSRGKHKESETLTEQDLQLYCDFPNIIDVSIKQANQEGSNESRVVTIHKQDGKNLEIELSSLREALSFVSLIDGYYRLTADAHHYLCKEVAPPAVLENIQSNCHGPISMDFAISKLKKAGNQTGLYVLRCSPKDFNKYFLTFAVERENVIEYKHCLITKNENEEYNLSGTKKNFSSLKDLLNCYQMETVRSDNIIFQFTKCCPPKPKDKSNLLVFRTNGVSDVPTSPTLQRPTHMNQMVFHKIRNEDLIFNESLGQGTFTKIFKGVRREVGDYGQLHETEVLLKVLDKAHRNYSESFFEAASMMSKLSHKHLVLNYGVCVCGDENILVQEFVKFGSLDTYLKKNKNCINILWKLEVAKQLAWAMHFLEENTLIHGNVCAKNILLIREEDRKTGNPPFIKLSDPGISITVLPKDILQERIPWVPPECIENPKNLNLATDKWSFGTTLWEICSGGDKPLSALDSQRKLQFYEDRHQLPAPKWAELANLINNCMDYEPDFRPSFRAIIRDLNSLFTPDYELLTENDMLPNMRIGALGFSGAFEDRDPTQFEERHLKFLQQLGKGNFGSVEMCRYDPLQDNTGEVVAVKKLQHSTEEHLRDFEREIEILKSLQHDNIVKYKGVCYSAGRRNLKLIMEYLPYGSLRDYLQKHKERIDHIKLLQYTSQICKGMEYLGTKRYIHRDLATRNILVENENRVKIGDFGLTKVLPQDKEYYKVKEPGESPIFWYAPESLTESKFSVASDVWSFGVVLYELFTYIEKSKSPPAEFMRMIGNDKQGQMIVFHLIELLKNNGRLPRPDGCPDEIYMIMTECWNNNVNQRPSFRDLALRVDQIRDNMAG

In the case of `OC(c1ccc(-n2cc(-c3ccnc4[nH]cnc34)cn2)nc1)(C1CC1)C(F)(F)F` (stereo not drawn) [Example 1126, 1-(6-(4-(3H-imidazo[4,5-b]pyridin-7-yl)-1H-pyrazol-1-yl)pyridin-3-yl)-1-cyclopropyl-2,2,2-trifluoroethanol], the IC50 in experiment [1] was more than 1 µM; on Recombinant JAK3, 0.007 µM; in experiment [2] (HT2, HT-2 cells), less than 1 µM; in experiment [3] (Homo sapiens, TF-1, TF-1 cells), 0.34 µM; on Recombinant JAK2 it was 0.036 µM; at Recombinant JAK1 it was 0.003 µM. Moreover, on Recombinant TYK2, the IC50 is more than 1 µM.

`CC(C)S(=O)(=O)CCC(c1ccc(-n2cc(-c3ccnc4[nH]cnc34)cn2)nc1)C(F)(F)F` (stereo not drawn) [Example 1186, 7-(1-(5-(1,1,1-trifluoro-4-(isopropylsulfonyl)butan-2-yl)pyridin-2-yl)-1H-pyrazol-4-yl)-3H-imidazo[4,5-b]pyridine]: the IC50 in experiment [1] is more than 1 µM; at Recombinant JAK3, more than 0.1 µM; in experiment [2] (HT2, HT-2 cells), more than 1 µM; in experiment [3] (Homo sapiens, TF-1, TF-1 cells), more than 0.8 µM; on Recombinant JAK2, more than 0.1 µM; at Recombinant JAK1 it was less than 0.1 µM. For the same molecule, the IC50 at Recombinant TYK2 is more than 1 µM.

Regarding `OCCC(c1ccc(-n2cc(-c3ccnc4[nH]cnc34)cn2)nc1)C(F)(F)F` (stereo not drawn) [Example 1154, 3-(6-(4-(3H-imidazo[4,5-b]pyridin-7-yl)-1H-pyrazol-1-yl)pyridin-3-yl)-4,4,4-trifluorobutan-1-ol], the IC50 is more than 1 µM in experiment [1]; less than 0.1 µM at Recombinant JAK3; more than 0.5 µM in experiment [2] (HT2, HT-2 cells); more than 0.5 µM in experiment [3] (Homo sapiens, TF-1, TF-1 cells); less than 0.1 µM on Recombinant JAK2; less than 0.1 µM on Recombinant JAK1. The IC50 on Recombinant TYK2 is more than 0.5 µM.

For the molecule `N#CCCC(O)(c1ccc(-n2cc(-c3ccnc4[nH]cnc34)cn2)nc1)C(F)(F)F` (stereo not drawn) [Example 1227, 4-(6-(4-(3H-imidazo[4,5-b]pyridin-7-yl)-1H-pyrazol-1-yl)pyridin-3-yl)-5,5,5-trifluoro-4-hydroxypentanenitrile], the IC50 in experiment [1] is more than 0.75 µM; on Recombinant JAK3 it was less than 0.1 µM; in experiment [2] (HT2, HT-2 cells), more than 0.5 µM; in experiment [3] (Homo sapiens, TF-1, TF-1 cells), more than 0.1 µM; on Recombinant JAK2, less than 0.1 µM; on Recombinant JAK1, less than 0.1 µM. Moreover, at Recombinant TYK2, the IC50 is more than 0.1 µM.

With `O=C(NCCC(c1ccc(-n2cc(-c3ccnc4[nH]cnc34)cn2)nc1)C(F)(F)F)C1CCCC1` (stereo not drawn) [Example 1151, N-(3-(6-(4-(3H-imidazo[4,5-b]pyridin-7-yl)-1H-pyrazol-1-yl)pyridin-3-yl)-4,4,4-trifluorobutyl)cyclopentanecarboxamide], the IC50 is more than 1 µM in experiment [1]; more than 0.1 µM on Recombinant JAK3; more than 1 µM in experiment [2] (HT2, HT-2 cells); more than 0.5 µM in experiment [3] (Homo sapiens, TF-1, TF-1 cells); more than 0.1 µM on Recombinant JAK2; less than 0.1 µM at Recombinant JAK1. For the same molecule, the IC50 at Recombinant TYK2 was more than 1 µM.

`CC(C)NCCC(c1ccc(-n2cc(-c3ccnc4[nH]cnc34)cn2)nc1)C(F)(F)F` (stereo not drawn) [Example 1203, 3-(6-(4-(3H-imidazo[4,5-b]pyridin-7-yl)-1H-pyrazol-1-yl)pyridin-3-yl)-4,4,4-trifluoro-N-isopropylbutan-1-amine]: the IC50 in experiment [1] is more than 1 µM; at Recombinant JAK3 it was less than 0.1 µM; in experiment [2] (HT2, HT-2 cells) it was more than 0.5 µM; in experiment [3] (Homo sapiens, TF-1, TF-1 cells), more than 0.1 µM; at Recombinant JAK2, less than 0.1 µM; at Recombinant JAK1 it was less than 0.1 µM. Further, on Recombinant TYK2, the IC50 is more than 0.5 µM.

Regarding `FC(F)(F)[C@H](c1ccc(-n2cc(-c3ccnc4[nH]cnc34)cn2)nc1)C1COC1` (single isomer, unassigned) [Example 1185], the IC50 was more than 1 µM in experiment [1]; more than 0.1 µM on Recombinant JAK3; more than 3 µM in experiment [2] (HT2, HT-2 cells); 2 µM in experiment [3] (Homo sapiens, TF-1, TF-1 cells); more than 0.1 µM on Recombinant JAK2; less than 0.1 µM on Recombinant JAK1. For the same molecule, on Recombinant TYK2, the IC50 was more than 1 µM.

For the molecule `N#CCNC(=O)n1cc(-c2ccnc3[nH]c(=O)[nH]c23)cn1` [Example 1027, N-(cyanomethyl)-4-(2,3-dihydro-2-oxo-1H-imidazo[4,5-b]pyridin-7-yl)-1H-pyrazole-1-carboxamide], the IC50 is more than 10 µM in experiment [1]; 0.146 µM on Recombinant JAK3; more than 10 µM in experiment [2] (HT2, HT-2 cells); more than 10 µM in experiment [3] (Homo sapiens, TF-1, TF-1 cells); 0.044 µM at Recombinant JAK2; 0.028 µM on Recombinant JAK1. Besides, the IC50 at Recombinant TYK2 turned out to be 0.096 µM.

Consider `CCC(c1ccc(-n2cc(-c3ccnc4[nH]cnc34)cn2)nc1)C(F)(F)F` (stereo not drawn) [Example 1122, 7-(1-(5-(1,1,1-trifluorobutan-2-yl)pyridin-2-yl)-1H-pyrazol-4-yl)-3H-imidazo[4,5-b]pyridine], for which the IC50 is more than 1 µM in experiment [1]; more than 0.5 µM at Recombinant JAK3; more than 1 µM in experiment [2] (HT2, HT-2 cells); more than 1 µM in experiment [3] (Homo sapiens, TF-1, TF-1 cells); more than 0.5 µM on Recombinant JAK2; more than 0.1 µM on Recombinant JAK1. For the same molecule, the IC50 at Recombinant TYK2 is more than 1 µM.

`CNCCC(c1ccc(-n2cc(-c3ccnc4[nH]cnc34)cn2)nc1)C(F)(F)F` (stereo not drawn) [Example 1198, 3-(6-(4-(3H-imidazo[4,5-b]pyridin-7-yl)-1H-pyrazol-1-yl)pyridin-3-yl)-4,4,4-trifluoro-N-methylbutan-1-amine]: the IC50 is 1 µM in experiment [1]; less than 0.1 µM on Recombinant JAK3; 0.6 µM in experiment [2] (HT-2 cells); 0.1 µM in experiment [3] (TF-1 cells); less than 0.1 µM on Recombinant JAK2; less than 0.1 µM on Recombinant JAK1. Also, at Recombinant TYK2, the IC50 is more than 0.5 µM.

For the molecule `FC(F)(F)C(c1ccc(-n2cc(-c3ccnc4[nH]cnc34)cn2)nc1)C1COC1` (stereo not drawn) [Example 1136, 7-(1-(5-(2,2,2-trifluoro-1-(oxetan-3-yl)ethyl)pyridin-2-yl)-1H-pyrazol-4-yl)-3H-imidazo[4,5-b]pyridine], the IC50 in experiment [1] is more than 1 µM; at Recombinant JAK3, less than 0.1 µM; in experiment [2] (HT2, HT-2 cells) it was 0.8 µM; in experiment [3] (Homo sapiens, TF-1, TF-1 cells) it was 0.7 µM; on Recombinant JAK2, less than 0.1 µM; at Recombinant JAK1, less than 0.1 µM. Also, the IC50 at Recombinant TYK2 was more than 1 µM.

Take `FC(F)(F)C(CCNC1CC1)c1ccc(-n2cc(-c3ccnc4[nH]cnc34)cn2)nc1` (stereo not drawn) [Example 1153, N-(3-(6-(4-(3H-imidazo[4,5-b]pyridin-7-yl)-1H-pyrazol-1-yl)pyridin-3-yl)-4,4,4-trifluorobutyl)cyclopropanamine]: the IC50 in experiment [1] is more than 1 µM; at Recombinant JAK3 it was less than 0.1 µM; in experiment [2] (HT2, HT-2 cells), 2.1 µM; in experiment [3] (Homo sapiens, TF-1, TF-1 cells) it was 0.36 µM; at Recombinant JAK2, less than 0.1 µM; at Recombinant JAK1, less than 0.1 µM. The IC50 at Recombinant TYK2 was more than 0.5 µM.
